According to PMC7794397, “Curbing gastrointestinal infections by defensin fragment modifications without harming commensal microbiota” (Communications Biology, 2021):
Values after ≈ are worked out from the molar mass of the structure shown. Read-outs that look alike come from different tables or passages of the source. Non-standard residues stand in square brackets, D forms with d. Residues, ends and D or L forms follow the SMILES beside them. ξ: configuration not given here. *: point of attachment. X2 = CCCCCCCCCCCCCCCC(=O)OCC(COC(=O)CCC(=O)*)OC(=O)CCCCCCCCCCCCCCC; X1 = CCCCCCCCCCCCCCCC(=O)OCC(C*)OC(=O)CCCCCCCCCCCCCCC; Palmitoyl = CCCCCCCCCCCCCCCC(=O)*; ξK = NCCCCC(N)C(=O)O; ξC = NC(CS)C(=O)O

What was measured:
E. coli = experiment: Antibiogram of ESKAPE pathogens; format: cell-based; conditions: Escherichia coli, column assigned by order in flattened table
Source text: (§1) Supplementary Table 1. Antibiogram of ESKAPE pathogens used in this study.
(§2) Bacteria susceptible to all (blue color) or intermediate/resistant to at least one (red color) of antibiotics per class following the EUCAST breakpoints. Black color is shown if the susceptibility to agents in that class is not assessed. Values are minimal inhibition concentrations (MIC) in µg/ml or for Chloramphenicol in diameter (mm). […]

[1] = tested on: multidrug resistant bacteria belonging to the ESKAPE pathogen panel; format: cell-based; conditions: broth microdilution, ESKAPE panel
Experimental: Bactericidal activity was assessed by broth microdilution assay. […] After incubation, 100 µl of 6% TSB (w/v) were added and absorbance was measured at 600 nm (Tecan, Switzerland) and monitored for 18 h. Afterward, 100 µl per well were plated on LB agar to determine the numbers of viable bacteria microbiologically. Bactericidal activity is expressed as the LC99.9, the lowest concentration that killed ≥99.9 % of bacteria.

[2] = tested on: several pathogenic bacteria; experiment: Radial diffusion assay, all tested strains; format: cell-based
Experimental: Antimicrobial activity was analyzed by radial diffusion assay. Log-phase bacteria were cultivated for up to 18 h in TSB (TSB, Becton Dickinson, USA), washed and diluted to 4 × 10^6 CFU in 10 ml agar. Bacteria were incubated in 10 ml of 10 mM sodium phosphate, pH 7.4, containing 0.3 mg/ml of TSB powder and 1% (w/v) low EEO-agarose (AppliChem). 1 µg of each lipopeptide was pipetted into punched wells in a final volume of 4 µl and diffused into the gel for 3 h at 37 °C. After that, a nutrient-rich gel with 6% TSB (w/v) and 1% agarose in 10 mM sodium phosphate buffer was poured on top of the first gel and incubated for up to 24 h at 37 °C. Then the diameter of inhibition zones was measured.

S. aureus ATCC 25923 = format: cell-based; conditions: for Fold change in MIC: relative to MIC of first passage, Mean
Experimental: Development of resistance to the peptides was assessed with S. aureus and S. Typhimurium. […] Bacteria were cultured overnight at 37 °C at 150 rpm in TSB. Bacteria were washed twice with 10 mM sodium phosphate buffer containing 1% (w/v) TSB. […] After incubation, 100 µl of 6% TSB (w/v) was added and plates incubated in a humidified atmosphere for 21 h at 37 °C and 150 rpm.
The MIC, the lowest concentration of peptide/antibiotic that caused a lack of visible bacterial growth, was determined for each bacterial species. […] This was repeated for 25 passages.

ESKAPE pathogens = experiment: organism not typed
Source text: as §1, §2

S. aureus = experiment: Antibiogram of ESKAPE pathogens; format: cell-based; conditions: Staphylococcus aureus
Source text: as §1, §2

E. faecium = experiment: microbe, parasite or virus in culture; conditions: for MIC: Enterococcus faecium
Source text: as §1, §2

SMILES: C[C@@H](O)[C@H]1C(=O)N2C(C(=O)O)=C(SCCN=CN)C[C@H]12 [Imipenem]
- MIC (E. coli; strain DSM682): 2 µg/mL (≈ 6.68 µM)
- MIC (E. coli; strain DSM8695): ≤ 0.25 µg/mL

SMILES: CCCCCCCCCCCCCCCC(=O)NC(CSCC(COC(=O)CCCCCCCCCCCCCCC)OC(=O)CCCCCCCCCCCCCCC)C(=O)N[C@@H](CCCNC(=N)N)C(=O)NCC(=O)N[C@@H](CCCCN)C(=O)N[C@@H](C)C(=O)N[C@@H](CCCCN)C(=O)N[C@@H](CS)C(=O)N[C@@H](CS)C(=O)N[C@@H](CCCCN)C(=O)O (stereo partly shown) [Pam-4] (Palmitoyl-[ξC](X1)RGKAKCCK-OH; C-terminus assumed)
- bactericidal activity (in words) [1]: no or low bactericidal activity
- antimicrobial activity (in words) [2]: generally inactive

SMILES: CO[C@H]1/C=C/O[C@@]2(C)Oc3c(C)c(O)c4c(O)c(c(/C=N/N5CCN(C)CC5)c(O)c4c3C2=O)NC(=O)/C(C)=C\C=C\[C@H](C)[C@H](O)[C@@H](C)[C@@H](O)[C@@H](C)[C@H](OC(C)=O)[C@@H]1C [Rifampicin, reference compound]
- Fold change in MIC (S. aureus ATCC 25923; Day (passage) 0): 1.0
- Fold change in MIC (S. aureus ATCC 25923; Day (passage) 1): 0.8
- Fold change in MIC (S. aureus ATCC 25923; Day (passage) 2): 1.0
- Fold change in MIC (S. aureus ATCC 25923; Day (passage) 3): 1.0
- Fold change in MIC (S. aureus ATCC 25923; Day (passage) 4): 1.7
- Fold change in MIC (S. aureus ATCC 25923; Day (passage) 5): 3.7
- Fold change in MIC (S. aureus ATCC 25923; Day (passage) 6): 43.3
- Fold change in MIC (S. aureus ATCC 25923; Day (passage) 7): 87.3
- Fold change in MIC (S. aureus ATCC 25923; Day (passage) 8): 163.3
- Fold change in MIC (S. aureus ATCC 25923; Day (passage) 9): 348.0
- Fold change in MIC (S. aureus ATCC 25923; Day (passage) 10): 768.7
- Fold change in MIC (S. aureus ATCC 25923; Day (passage) 11): 1366.0
- Fold change in MIC (S. aureus ATCC 25923; Day (passage) 12): 2731.4
- Fold change in MIC (S. aureus ATCC 25923; Day (passage) 13): 2732.0
- Fold change in MIC (S. aureus ATCC 25923; Day (passage) 14): 3200.7
- Fold change in MIC (S. aureus ATCC 25923; Day (passage) 15): 4267.4
- Fold change in MIC (S. aureus ATCC 25923; Day (passage) 16): 4267.4
- Fold change in MIC (S. aureus ATCC 25923; Day (passage) 17): 4268.0
- Fold change in MIC (S. aureus ATCC 25923; Day (passage) 18): 4267.4
- Fold change in MIC (S. aureus ATCC 25923; Day (passage) 19): 2733.4
- Fold change in MIC (S. aureus ATCC 25923; Day (passage) 20): 2731.5
- Fold change in MIC (S. aureus ATCC 25923; Day (passage) 21): 2731.4
- Fold change in MIC (S. aureus ATCC 25923; Day (passage) 22): 2731.4
- Fold change in MIC (S. aureus ATCC 25923; Day (passage) 23): 2733.4
- Fold change in MIC (S. aureus ATCC 25923; Day (passage) 24): 2741.4
- Fold change in MIC (S. aureus ATCC 25923; Day (passage) 25): 2816.0
- increase of MIC (S. aureus ATCC 25923; after 15 passages): ≥ 4096 fold

SMILES: CC1(C)S[C@@H]2[C@H](NC(=O)[C@H](N)c3ccccc3)C(=O)N2[C@H]1C(=O)O [Ampicillin]
- MIC (E. coli; strain DSM682): ≥ 32 µg/mL
- MIC (E. coli; strain DSM8695): 8 µg/mL (≈ 22.9 µM)

SMILES: C[C@H]1[C@H](NC(=O)/C(=N\OC(C)(C)C(=O)O)c2csc(N)n2)C(=O)N1S(=O)(=O)O [Aztreonam]
- MIC (ESKAPE pathogens; read-out: MIC (antibiogram)): > 256 µg/mL

SMILES: C[C@@H](O)[C@H]1C(=O)N2C(C(=O)O)=C(S[C@@H]3CN[C@H](C(=O)N(C)C)C3)[C@H](C)[C@H]12 [Meropenem]
- MIC (E. coli; strain DSM682): 8 µg/mL (≈ 20.9 µM)
- MIC (E. coli; strain DSM8695): ≤ 0.25 µg/mL

SMILES: NC[C@H]1O[C@H](O[C@H]2[C@H](O)[C@@H](O[C@H]3O[C@H](CO)[C@@H](O)[C@H](N)[C@H]3O)[C@H](N)C[C@@H]2N)[C@H](N)C[C@@H]1O [Tobramycin]
- MIC (E. coli; strain DSM8695): ≤ 1 µg/mL

SMILES: CN[C@H](CC(C)C)C(=O)N[C@H]1C(=O)N[C@@H](CC(N)=O)C(=O)N[C@H]2C(=O)N[C@H]3C(=O)N[C@H](C(=O)N[C@H](C(=O)O)c4cc(O)cc(O)c4-c4cc3ccc4O)[C@H](O)c3ccc(c(Cl)c3)Oc3cc2cc(c3O[C@@H]2O[C@H](CO)[C@@H](O)[C@H](O)[C@H]2O[C@H]2C[C@](C)(N)[C@H](O)[C@H](C)O2)Oc2ccc(cc2Cl)[C@H]1O [Vancomycin]
- MIC (S. aureus; ATCC33592, read-out: MIC (antibiogram)): 1 µg/mL (≈ 0.69 µM)
- MIC (S. aureus; ATCC43300, read-out: MIC (antibiogram)): 1 µg/mL (≈ 0.69 µM)
- MIC (S. aureus; DSM20231, read-out: MIC (antibiogram)): 1 µg/mL (≈ 0.69 µM)
- MIC (E. faecium; DSM2918, read-out: MIC (antibiogram)): ≥ 32 µg/mL
- MIC (E. faecium; read-out: MIC (antibiogram)): ≥ 32 µg/mL

SMILES: CN(C)[C@@H]1C(=O)C(C(N)=O)=C(O)[C@@]2(O)C(=O)C3=C(O)c4c(O)cccc4[C@@](C)(O)[C@H]3C[C@@H]12 [Tetracyclin]
- MIC (antibiogram) (ESKAPE pathogens; one strain of A. baumannii, P. aeruginosa or E. coli, not assignable): ≥ 256 µg/mL

SMILES: CCCCCCCCCCCCCCCC(=O)OCC(COC(=O)CCC(=O)N[C@@H](CCCNC(=N)N)C(=O)NCC(=O)N[C@@H](CCCCN)C(=O)N[C@@H](C)C(=O)N[C@@H](CCCCN)C(=O)N[C@@H](CS)C(=O)N[C@@H](CS)C(=O)N[C@@H](CCCCN)C(=O)O)OC(=O)CCCCCCCCCCCCCCC (stereo partly shown) [Pam-1] (X2-RGKAKCCK-OH; C-terminus assumed)
- bactericidal activity (in words) [1]: no or low bactericidal activity
- antimicrobial activity (in words) [2]: generally inactive

SMILES: CNC(C)C1CCC(N)C(OC2C(N)CC(N)C(OC3OCC(C)(O)C(NC)C3O)C2O)O1 (stereo not shown) [Gentamicin]
- MIC (E. coli; strain DSM8695): ≤ 1 µg/mL

SMILES: CCCCCCCCCC(=O)N[C@@H](Cc1c[nH]c2ccccc12)C(=O)N[C@H](CC(N)=O)C(=O)N[C@@H](CC(=O)O)C(=O)N[C@@H]1C(=O)NCC(=O)N[C@@H](CCCN)C(=O)N[C@@H](CC(=O)O)C(=O)N[C@H](C)C(=O)N[C@@H](CC(=O)O)C(=O)NCC(=O)N[C@H](CO)C(=O)N[C@@H]([C@H](C)CC(=O)O)C(=O)N[C@@H](CC(=O)c2ccccc2N)C(=O)O[C@@H]1C [Daptomycin]
- MIC (antibiogram) (E. faecium): 4 µg/mL (≈ 2.47 µM)

SMILES: CCCCCCCCCCCCCCCC(=O)NCCCCC(NC(=O)CCCCCCCCCCCCCCC)C(=O)N[C@@H](CCCNC(=N)N)C(=O)NCC(=O)N[C@@H](CCCCN)C(=O)N[C@@H](C)C(=O)N[C@@H](CCCCN)C(=O)N[C@@H](CS)C(=O)N[C@@H](CS)C(=O)N[C@@H](CCCCN)C(=O)O (stereo partly shown) [Pam-5] (Palmitoyl-[ξK](Palmitoyl)RGKAKCCK-OH; C-terminus assumed)
- bactericidal activity (in words) [1]: moderate effects
- antimicrobial activity (in words) [2]: generally inactive

SMILES: CCN1CCN(C(=O)N[C@@H](C(=O)N[C@@H]2C(=O)N3[C@@H]2SC(C)(C)[C@@H]3C(=O)O)c2ccccc2)C(=O)C1=O [Piperacillin]
- MIC (E. coli; strain DSM8695): ≤ 4 µg/mL

SMILES: CO/N=C(\C(=O)N[C@@H]1C(=O)N2C(C(=O)O)=C(COC(N)=O)CS[C@H]12)c1ccco1 [Cefuroxim]
- MIC (E. coli; strain DSM682): ≥ 64 µg/mL

SMILES: O=C(N[C@H](CO)[C@H](O)c1ccc([N+](=O)[O-])cc1)C(Cl)Cl [Chloramphenicol]
- diameter (antibiogram) (ESKAPE pathogens; one strain of E. faecium, S. aureus or K. pneumoniae, not assignable): 22 mm
